Converted amounts (≈) assume the structure as drawn.
How the values were obtained:
[1] = system: Enterococcus faecalis 2041; assay: Broth micro-dilution MIC; format: cell-based; conditions: BHI medium
Procedure: (§1) The compounds of the present invention have in vitro activity against Gram-positive pathogenic bacteria. The antibacterial activity of the present compounds is illustrated in Tables III and IV. The minimal inhibitory concentrations (MICs) were determined using a standard broth micro-dilution assay. Table IV presents a comparison of the activity of illustrative compounds against representative vancomycin-resistant and vancomycin-sensitive enterococci (Enterococcus faecium and Enterococcus faecalis), mean geometric MIC (mcg/mL), as determined by the standard broth microdilution assay.
(§2) Assays for antimicrobial activity were performed using microbroth susceptibility testing methods as described by the NCCLS (National Committee for Clinical Laboratories Standards. 1990. Approved standard M7-A2. Methods for dilution antimicrobial susceptibility testing for bacteria that grow aerobically, 2 ed., Villanova Pa.). Brain-heart infusion medium (BHI) was used for testing of enterococci, and NCCLS recommendations for medium were followed for other bacteria.

[2] = system: Enterococcus faecalis 276; assay: Broth micro-dilution MIC; format: cell-based; conditions: BHI medium
Procedure: as §1, §2

[3] = system: Enterococcus faecium 180-1; assay: Broth micro-dilution MIC; format: cell-based; conditions: BHI medium
Procedure: as §1, §2

Enterococcus faecium 180 = assay: Broth micro-dilution MIC; format: cell-based; conditions: BHI medium
Procedure: as §1, §2

[4] = system: Enterococcus gallinarum 245; assay: Broth micro-dilution MIC; format: cell-based; conditions: BHI medium
Procedure: as §1, §2

Escherichia coli EC14 = assay: Broth micro-dilution MIC; format: cell-based
Procedure: as §1, §2

[5] = system: Haemophilus influenzae RD; assay: Broth micro-dilution MIC; format: cell-based
Procedure: as §1, §2

[6] = system: Staphylococcus aureus 446; assay: Broth micro-dilution MIC; format: cell-based
Procedure: as §1, §2

[7] = system: Staphylococcus aureus 447; assay: Broth micro-dilution MIC; format: cell-based
Procedure: as §1, §2

[8] = system: Staphylococcus aureus 489; assay: Broth micro-dilution MIC; format: cell-based
Procedure: as §1, §2

[9] = system: Staphylococcus aureus 491; assay: Broth micro-dilution MIC; format: cell-based
Procedure: as §1, §2

[10] = system: Staphylococcus aureus S13E; assay: Broth micro-dilution MIC; format: cell-based
Procedure: as §1, §2

[11] = system: Staphylococcus aureus SA1199A; assay: Broth micro-dilution MIC; format: cell-based
Procedure: as §1, §2

[12] = system: Staphylococcus aureus SA1199B; assay: Broth micro-dilution MIC; format: cell-based
Procedure: as §1, §2

[13] = system: Staphylococcus aureus SA1199; assay: Broth micro-dilution MIC; format: cell-based
Procedure: as §1, §2

[14] = system: Staphylococcus aureus X400; assay: Broth micro-dilution MIC; format: cell-based
Procedure: as §1, §2

[15] = system: Staphylococcus aureus X778; assay: Broth micro-dilution MIC; format: cell-based
Procedure: as §1, §2

[16] = system: Staphylococcus epidermidis 270; assay: Broth micro-dilution MIC; format: cell-based
Procedure: as §1, §2

[17] = system: Staphylococcus haemolyticus 105; assay: Broth micro-dilution MIC; format: cell-based
Procedure: as §1, §2

[18] = system: Staphylococcus haemolyticus 415; assay: Broth micro-dilution MIC; format: cell-based
Procedure: as §1, §2

[19] = system: Streptococcus pneumoniae P1; assay: Broth micro-dilution MIC; format: cell-based
Procedure: as §1, §2

[20] = system: Streptococcus pyogenes C203; assay: Broth micro-dilution MIC; format: cell-based
Procedure: as §1, §2

[21] = system: vancomycin-resistant enterococci; assay: In vitro activity against enterococci, broth microdilution; format: cell-based, Enterococcus faecium and Enterococcus faecalis; conditions: representative vancomycin-resistant enterococci (E. faecium and E. faecalis); BHI medium
Procedure: as §1, §2

[22] = system: vancomycin-sensitive enterococci; assay: as above; format: cell-based, Enterococcus faecium and Enterococcus faecalis; conditions: representative vancomycin-sensitive enterococci (E. faecium and E. faecalis); BHI medium
Procedure: as §1, §2

| Compound | MIC [1] | MIC [2] | MIC [3] | MIC (Enterococcus faecium 180) | MIC [4] | MIC (Escherichia coli EC14) | MIC [5] | MIC [6] | MIC [7] | MIC [8] | MIC [9] | MIC [10] | MIC [11] | MIC [12] | MIC [13] | MIC [14] | MIC [15] | MIC [16] | MIC [17] | MIC [18] | other results |
| --- | --- | --- | --- | --- | --- | --- | --- | --- | --- | --- | --- | --- | --- | --- | --- | --- | --- | --- | --- | --- | --- |
| CNC(CC(C)C)C(=O)NC1C(=O)NC(CC(N)=O)C(=O)NC2C(=O)NC3C(=O)NC(C(=O)NC(C(=O)O)c4cc(O)cc(O)c4-c4cc3ccc4O)C(OC3CC(C)(N)C(O)C(C)O3)c3ccc(c(Cl)c3)Oc3cc2cc(c3OC2OC(CO)C(O)C(O)C2OC2CC(C)(NC(=O)c3ccc(-c4ccc(Cl)cc4)cc3)C(O)C(C)O2)Oc2ccc(cc2Cl)C1O (stereo not drawn) [Example 4] | ≦.06 μg/ml | 0.125 µg/mL (≈ 0.0692 µM) | ≦.06 μg/ml | ≦.06 μg/ml | 4 µg/mL (≈ 2.21 µM) | >64 µg/mL | 0.25 µg/mL (≈ 0.138 µM) | 1 µg/mL (≈ 0.553 µM) | 4 µg/mL (≈ 2.21 µM) | 0.25 µg/mL (≈ 0.138 µM) | 0.5 µg/mL (≈ 0.277 µM) | 0.5 µg/mL (≈ 0.277 µM) | 0.25 µg/mL (≈ 0.138 µM) | 0.5 µg/mL (≈ 0.277 µM) | 0.5 µg/mL (≈ 0.277 µM) | 0.25 µg/mL (≈ 0.138 µM) | 0.25 µg/mL (≈ 0.138 µM) | 2 µg/mL (≈ 1.11 µM) | 1 µg/mL (≈ 0.553 µM) | 4 µg/mL (≈ 2.21 µM) | MIC [19]: 0.125 µg/mL (≈ 0.0692 µM); MIC [20]: 0.125 µg/mL (≈ 0.0692 µM); Mean geometric MIC, Vancomycin Resistant Strains [21]: 3.4 µg/mL; Mean geometric MIC, Vancomycin Sensitive Strains [22]: 0.093 µg/mL |
| CNC(CC(C)C)C(=O)NC1C(=O)NC(CC(N)=O)C(=O)NC2C(=O)NC3C(=O)NC(C(=O)NC(C(=O)O)c4cc(O)cc(O)c4-c4cc3ccc4O)C(OC3CC(C)(NC(=O)c4ccc(-c5ccc(Cl)cc5)cc4)C(O)C(C)O3)c3ccc(c(Cl)c3)Oc3cc2cc(c3OC2OC(CO)C(O)C(O)C2OC2CC(C)(N)C(O)C(C)O2)Oc2ccc(cc2Cl)C1O (stereo not drawn) [Example 5] | ≦.06 μg/ml | ≦.06 μg/ml | ≦.06 μg/ml | 1 µg/mL (≈ 0.553 µM) | 8 µg/mL (≈ 4.43 µM) | >64 µg/mL | >64 µg/mL | 0.5 µg/mL (≈ 0.277 µM) | 2 µg/mL (≈ 1.11 µM) | ≦.06 μg/ml | ≦.06 μg/ml | 0.5 µg/mL (≈ 0.277 µM) | ≦.06 μg/ml | 0.25 µg/mL (≈ 0.138 µM) | 0.5 µg/mL (≈ 0.277 µM) | ≦.06 μg/ml | 0.5 µg/mL (≈ 0.277 µM) | 4 µg/mL (≈ 2.21 µM) | 0.5 µg/mL (≈ 0.277 µM) | 8 µg/mL (≈ 4.43 µM) | MIC [19]: ≦.06 μg/ml; MIC [20]: ≦.06 μg/ml; Mean geometric MIC, Vancomycin Resistant Strains [21]: 19 µg/mL; Mean geometric MIC, Vancomycin Sensitive Strains [22]: 0.29 µg/mL |
| CCCCCCCCOc1ccc(C(=O)NC2(C)CC(OC3C(Oc4c5cc6cc4Oc4ccc(cc4Cl)C(OC4CC(C)(N)C(O)C(C)O4)C4NC(=O)C(NC(=O)C6NC(=O)C(CC(N)=O)NC(=O)C(NC(=O)C(CC(C)C)NC)C(O)c6ccc(c(Cl)c6)O5)c5ccc(O)c(c5)-c5c(O)cc(O)cc5C(C(=O)O)NC4=O)OC(CO)C(O)C3O)OC(C)C2O)cc1 (stereo not drawn) [Example 6] | 0.25 µg/mL (≈ 0.137 µM) | 1 µg/mL (≈ 0.548 µM) | 0.125 µg/mL (≈ 0.0685 µM) | 0.25 µg/mL (≈ 0.137 µM) | 8 µg/mL (≈ 4.38 µM) | >64 µg/mL | >64 µg/mL | 2 µg/mL (≈ 1.1 µM) | 8 µg/mL (≈ 4.38 µM) | 1 µg/mL (≈ 0.548 µM) | 2 µg/mL (≈ 1.1 µM) | 8 µg/mL (≈ 4.38 µM) | 0.25 µg/mL (≈ 0.137 µM) | 2 µg/mL (≈ 1.1 µM) | 4 µg/mL (≈ 2.19 µM) | 4 µg/mL (≈ 2.19 µM) | 2 µg/mL (≈ 1.1 µM) | 8 µg/mL (≈ 4.38 µM) | 0.5 µg/mL (≈ 0.274 µM) | 8 µg/mL (≈ 4.38 µM) | MIC [19]: 0.25 µg/mL (≈ 0.137 µM); MIC [20]: 0.125 µg/mL (≈ 0.0685 µM); Mean geometric MIC, Vancomycin Resistant Strains [21]: 11.3 µg/mL; Mean geometric MIC, Vancomycin Sensitive Strains [22]: 1.2 µg/mL |
| CCCCCCCCOc1ccc(C(=O)NC2(C)CC(OC3c4ccc(c(Cl)c4)Oc4cc5cc(c4OC4OC(CO)C(O)C(O)C4OC4CC(C)(N)C(O)C(C)O4)Oc4ccc(cc4Cl)C(O)C(NC(=O)C(CC(C)C)NC)C(=O)NC(CC(N)=O)C(=O)NC5C(=O)NC4C(=O)NC3C(=O)NC(C(=O)O)c3cc(O)cc(O)c3-c3cc4ccc3O)OC(C)C2O)cc1 (stereo not drawn) [Example 7] | ≦.06 μg/ml | ≦.06 μg/ml | ≦.06 μg/ml | 0.5 µg/mL (≈ 0.274 µM) | 8 µg/mL (≈ 4.38 µM) | >64 µg/mL | >64 µg/mL | ≦.06 μg/ml | 0.125 µg/mL (≈ 0.0685 µM) | ≦.06 μg/ml | ≦.06 μg/ml | ≦.06 μg/ml | ≦.06 μg/ml | ≦.06 μg/ml | ≦.06 μg/ml | 0.125 µg/mL (≈ 0.0685 µM) | 0.125 µg/mL (≈ 0.0685 µM) | ≦.06 μg/ml | ≦.06 μg/ml | 8 µg/mL (≈ 4.38 µM) | MIC [19]: ≦.06 μg/ml; MIC [20]: ≦.06 μg/ml; Mean geometric MIC, Vancomycin Resistant Strains [21]: 6.7 µg/mL; Mean geometric MIC, Vancomycin Sensitive Strains [22]: 0.06 µg/mL |
| CCCCCCCC(=O)NC1(C)CC(OC2C(Oc3c4cc5cc3Oc3ccc(cc3Cl)C(OC3CC(C)(N)C(O)C(C)O3)C3NC(=O)C(NC(=O)C5NC(=O)C(CC(N)=O)NC(=O)C(NC(=O)C(CC(C)C)NC)C(O)c5ccc(c(Cl)c5)O4)c4ccc(O)c(c4)-c4c(O)cc(O)cc4C(C(=O)O)NC3=O)OC(CO)C(O)C2O)OC(C)C1O (stereo not drawn) [Example 8, 4′-N-octanoyl-A82846B] | 0.25 µg/mL (≈ 0.145 µM) | 0.5 µg/mL (≈ 0.291 µM) | 0.125 µg/mL (≈ 0.0727 µM) | 2 µg/mL (≈ 1.16 µM) | 16 µg/mL (≈ 9.31 µM) | >64 µg/mL | 64 µg/mL (≈ 37.2 µM) | 2 µg/mL (≈ 1.16 µM) | 8 µg/mL (≈ 4.65 µM) | 0.25 µg/mL (≈ 0.145 µM) | 0.25 µg/mL (≈ 0.145 µM) | 2 µg/mL (≈ 1.16 µM) | 0.25 µg/mL (≈ 0.145 µM) | 2 µg/mL (≈ 1.16 µM) | 2 µg/mL (≈ 1.16 µM) | 0.5 µg/mL (≈ 0.291 µM) | 1 µg/mL (≈ 0.582 µM) | 8 µg/mL (≈ 4.65 µM) | 0.5 µg/mL (≈ 0.291 µM) | 16 µg/mL (≈ 9.31 µM) | MIC [19]: ≦.06 μg/ml; MIC [20]: ≦.06 μg/ml; Mean geometric MIC, Vancomycin Resistant Strains [21]: 54 µg/mL; Mean geometric MIC, Vancomycin Sensitive Strains [22]: 0.87 µg/mL |
| CCCCCCCC(=O)NC1(C)CC(OC2c3ccc(c(Cl)c3)Oc3cc4cc(c3OC3OC(CO)C(O)C(O)C3OC3CC(C)(N)C(O)C(C)O3)Oc3ccc(cc3Cl)C(O)C(NC(=O)C(CC(C)C)NC)C(=O)NC(CC(N)=O)C(=O)NC4C(=O)NC3C(=O)NC2C(=O)NC(C(=O)O)c2cc(O)cc(O)c2-c2cc3ccc2O)OC(C)C1O (stereo not drawn) [Example 9, 6′-N-octanoyl-A82846B] | 0.5 µg/mL (≈ 0.291 µM) | 0.125 µg/mL (≈ 0.0727 µM) | 0.125 µg/mL (≈ 0.0727 µM) | 32 µg/mL (≈ 18.6 µM) | 16 µg/mL (≈ 9.31 µM) | >64 µg/mL | 64 µg/mL (≈ 37.2 µM) | 1 µg/mL (≈ 0.582 µM) | 2 µg/mL (≈ 1.16 µM) | 0.125 µg/mL (≈ 0.0727 µM) | 0.125 µg/mL (≈ 0.0727 µM) | 1 µg/mL (≈ 0.582 µM) | 0.125 µg/mL (≈ 0.0727 µM) | 0.5 µg/mL (≈ 0.291 µM) | 0.5 µg/mL (≈ 0.291 µM) | 0.5 µg/mL (≈ 0.291 µM) | 0.25 µg/mL (≈ 0.145 µM) | 2 µg/mL (≈ 1.16 µM) | 0.25 µg/mL (≈ 0.145 µM) | 16 µg/mL (≈ 9.31 µM) | MIC [19]: ≦.06 μg/ml; MIC [20]: ≦.06 μg/ml; Mean geometric MIC, Vancomycin Resistant Strains [21]: >90 µg/mL; Mean geometric MIC, Vancomycin Sensitive Strains [22]: 1.2 µg/mL |
